Results published in patent US8207172B2 (Bayer Intellectual Property GmbH, priority 2004, dated 2012).
Counter-ions that a name gives are not always drawn.

Experiments:
[1] = test system: BT474 (human breast carcinoma); experiment: In vitro tumor cell proliferation assay (Cell Titer-Glo luminescent cell viability), BT474; type: cell-based; conditions: BT-474, 72 h, BT474 cells, 72 hours of drug exposure, ATP luminescence readout, read-out: IC50, anti-proliferative activity (inhibition of cell proliferation)
Excerpt: (§1) In vitro Tumor Cell Proliferation Assay
(§2) The tumor cell proliferation assay used to test the compounds of the present invention involves a readout called Cell Titer-Glow® Luminescent Cell Viability Assay developed by Promega® (Cunningham, B A “A Growing Issue: Cell Proliferation Assays, Modern kits ease quantification of cell growth” The Scientist 2001, 15(13), 26, and Crouch, S P et al., “The use of ATP bioluminescence as a measure of cell proliferation and cytotoxicity” Journal of Immunological Methods 1993, 160, 81-88), that measures inhibition of cell proliferation. Generation of a luminescent signal corresponds to the amount of ATP present, which is directly proportional to the number of metabolically active (proliferating) cells.
(§3) A431cells (human epidermoid carcinoma, ATCC […]) and BT474 (human breast carcinoma, ATCC […]) were plated at a density of 2.5×10^3 cells/well in 96 well black-clear bottom tissue culture plates in RPMI media with 10% Fetal Bovine Serum and incubated at 37° C. Twenty-four hours later, test compounds are added at a final concentration range from as high […] to as low 64 pM depend on the activities of the tested compounds in serial dilutions at a final DMSO concentration of 0.1%. Cells were incubated for 72 hours at 37° C. in complete growth media after addition of the test compound. After 72 hours of drug exposure, the plates were equilibrated to room temperature for approximately 30 min. Then, using a Promega Cell Titer Glo Luminescent® assay kit, lysis buffer containing 100 microliters of the enzyme luciferase and its substrate, luciferin mixture, was added to each well. The plates were mixed for 2 min on orbital shaker to ensure cell lysis and incubated for 10 min at room temperature to stabilize luminescence signal. The samples were read on VICTOR 2 using Luminescence protocol, and analyzed with Analyze5 software to generate IC50 values.

[2] = test system: A431 cells (human epidermoid carcinoma); experiment: In vitro tumor cell proliferation assay (Cell Titer-Glo luminescent cell viability), A431; type: cell-based; conditions: A-431, 72 h, 72 hours of drug exposure, ATP luminescence readout, read-out: IC50, anti-proliferative activity (inhibition of cell proliferation)
Excerpt: as §1, §2, §3

Row | IC50 [1] | IC50 [2] | Structure (SMILES)
1 | – | ≤ 5 µM | OC[C@@H](O)Cn1cc2c(n1)CCc1c-2sc2ncnc(Nc3ccc4c(cnn4Cc4cccc(F)c4)c3)c12 [Example 356, (2S)-3-(6-{[1-(3-fluorobenzyl)-1H-indazol-5-yl]amino}-4,5-dihydro-2H-pyrimido[5′,4′:4,5]thieno[2,3-e]indazol-2-yl)propane-1,2-diol]
2 | – | ≤ 5 µM | OC[C@H](O)Cn1cc2c(n1)CCc1c-2sc2ncnc(Nc3ccc4c(cnn4Cc4ccccc4)c3)c12 [Example 353, (2R)-3-{6-[(1-benzyl-1H-indazol-5-yl)amino]-4,5-dihydro-2H-pyrimido[5′,4′:4,5]thieno[2,3-e]indazol-2-yl}propane-1,2-diol]
3 | – | ≤ 50 µM | Cc1cccc(COc2ccc(Nc3ncnc4sc5c(c34)CCc3nn(C[C@H](O)CO)cc3-5)cc2Cl)n1 [Example 359, (2S)-3-[6-({3-chloro-4-[(6-methylpyridin-2-yl)methoxy]phenyl}amino)-4,5-dihydro-2H-pyrimido[5′,4′:4,5]thieno[2,3-e]indazol-2-yl]propane-1,2-diol]
4 | – | ≤ 5 µM | OCC(CO)n1cc2c(n1)CCc1c-2sc2ncnc(Nc3ccc(OCc4cccc(F)c4)c(Cl)c3)c12 [Example 360, 2-[6-({3-chloro-4-[(3-fluorobenzyl)oxy]phenyl}amino)-4,5-dihydro-2H-pyrimido[5′,4′:4,5]thieno[2,3-e]indazol-2-yl]propane-1,3-diol]
5 | – | ≤ 50 µM | OCC(CO)n1ncc2c1CCc1c-2sc2ncnc(Nc3ccc(OCc4cccc(F)c4)c(Cl)c3)c12 [Example 361, 2-[6-({3-chloro-4-[(3-fluorobenzyl)oxy]phenyl}amino)-4,5-dihydro-3H-pyrimido[5′,4′:4,5]thieno[2,3-e]indazol-3-yl)propane-1,3-diol]
6 | – | ≤ 5 µM | OCC(CO)n1cc2c(n1)CCc1c-2sc2ncnc(Nc3ccc4c(cnn4Cc4cccc(F)c4)c3)c12 [Example 363, 2-(6-{[1-(3-fluorobenzyl)-1H-indazol-5-yl]amino}-4,5-dihydro-2H-pyrimido[5′,4′:4,5]thieno[2,3-e]indazol-2-yl)propane-1,3-diol]
7 | – | ≤ 5 µM | OC[C@@H](O)Cn1cc2c(n1)CCc1c-2sc2ncnc(Nc3ccc4c(cnn4Cc4ccccc4)c3)c12 [Example 358, (2S)-3-{6-[(1-benzyl-1H-indazol-5-yl)amino]-4,5-dihydro-2H-pyrimido[5′,4′:4,5]thieno[2,3-e]indazol-2-yl}propane-1,2-diol]
8 | – | ≤ 5 µM | OC[C@@H](O)Cn1cc2c(n1)CCc1c-2sc2ncnc(Nc3ccc(OCc4ccccc4)c(Cl)c3)c12 [Example 357, (2S)-3-(6-{[4-(benzyloxy)-3-chlorophenyl]amino}-4,5-dihydro-2H-pyrimido[5′,4′:4,5]thieno[2,3-e]indazol-2-yl)propane-1,2-diol]
9 | – | ≤ 50 µM | Cc1cccc(COc2ccc(Nc3ncnc4sc5c(c34)CCc3nn(C[C@@H](O)CO)cc3-5)cc2Cl)n1 [Example 352, (2R)-3-[6-({3-chloro-4-[(6-methylpyridin-2-yl)methoxy]phenyl}amino)-4,5-dihydro-2H-pyrimido[5′,4′:4,5]thieno[2,3-e]indazol-2-yl]propane-1,2-diol]
10 | – | ≤ 5 µM | OCC(CO)n1ncc2c1CCc1c-2sc2ncnc(Nc3ccc4c(cnn4Cc4cccc(F)c4)c3)c12 [Example 362, 2-(6-{[1-(3-fluorobenzyl)-1H-indazol-5-yl]-amino}-4,5-dihydro-3H-pyrimido[5′,4′:4,5]thieno[2,3-e]indazol-3-yl)propane-1,3-diol]
11 | – | ≤ 5 µM | OC[C@H](O)Cn1cc2c(n1)CCc1c-2sc2ncnc(Nc3ccc(OCc4ccccc4)c(Cl)c3)c12 [Example 355, (2R)-3-(6-{[4-(benzyloxy)-3-chlorophenyl]amino}-4,5-dihydro-2H-pyrimido[5′,4′:4,5]thieno[2,3-e]indazol-2-yl)propane-1,2-diol]
12 | – | ≤ 5 µM | OC[C@H](O)Cn1cc2c(n1)CCc1c-2sc2ncnc(Nc3ccc4c(cnn4Cc4cccc(F)c4)c3)c12 [Example 354, (2R)-3-(6-{[1-(3-fluorobenzyl)-1H-indazol-5-yl]amino}-4,5-dihydro-2H-pyrimido[5′,4′:4,5]thieno[2,3-e]indazol-2-yl)propane-1,2-diol]

The next lines start with the molecule.

Row | Structure (SMILES) | IC50 [1] | IC50 [2]
13 | O=C(CCl)N1CCC(Cn2cc3c(n2)CCc2c-3sc3ncnc(Nc4ccc(OCc5cccc(F)c5)c(Cl)c4)c23)CC1 [Example 233, 2-{[1-(chloroacetyl)piperidin-4-yl]methyl}-N-{3-chloro-4-[(3-fluorobenzyl)oxy]phenyl}-4,5-dihydro-2H-pyrimido[5′,4′:4,5]thieno[2,3-e]indazol-6-amine trifluoroacetate] | ≤ 1 µM | –
14 | OC[C@H](O)Cn1cc2c(n1)CCc1c-2sc2ncnc(Nc3ccc(OCc4ccccn4)c(Cl)c3)c12 [Example 350, 3-(6-{[3-chloro-4-(pyridin-2-ylmethoxy)phenyl]amino}-4,5-dihydro-2H-pyrimido[5′,4′:4,5]thieno[2,3-e]indazol-2-yl)propane-1,2-diol] | – | ≤ 5 µM
15 | OC[C@@H](O)Cn1cc2c(n1)CCc1c-2sc2ncnc(Nc3ccc(OCc4ccccn4)c(Cl)c3)c12 [Example 351, (2S)-3-(6-{[3-chloro-4-(pyridin-2-ylmethoxy)phenyl]amino}-4,5-dihydro-2H-pyrimido[5′,4′:4,5]thieno[2,3-e]indazol-2-yl)propane-1,2-diol] | – | ≤ 5 µM
16 | CN1CCN(CCn2cc3c(n2)CCc2c-3sc3ncnc(Nc4cccc(Cl)c4)c23)CC1 [Example 47, N-(3-chlorophenyl)-2-[2-(4-methylpiperazin-1-yl)ethyl]-4,5-dihydro-2H-pyrimido[5′,4′:4,5]thieno[2,3-e]indazol-6-amine] | – | ≤ 5 µM
17 | Fc1cccc(COc2ccc(Nc3ncnc4sc5c(c34)CCc3c-5cnn3CCBr)cc2Cl)c1 [Example 81, 3-(2-bromoethyl)-N-{3-chloro-4-[(3-fluorobenzyl)oxy]phenyl}-4,5-dihydro-3H-pyrimido[5′,4′:4,5]thieno[2,3-e]indazol-6-amine] | – | ≤ 50 µM
18 | CN1CCN(CCn2cc3c(n2)CCc2c-3sc3ncnc(Nc4ccc(Cc5cccnc5)cc4)c23)CC1 [Example 348, 2-[2-(4-methylpiperazin-1-yl)ethyl]-N-[4-(pyridin-3-ylmethyl)phenyl]-4,5-dihydro-2H-pyrimido[5′,4′:4,5]thieno[2,3-e]indazol-6-amine] | – | ≤ 50 µM
19 | Fc1ccc(Nc2ncnc3sc4c(c23)CCc2nn(CCN3CCNCC3)cc2-4)cc1Cl [Example 20, N-(3-chloro-4-fluorophenyl)-2-(2-piperazin-1-ylethyl)-4,5-dihydro-2H-pyrimido[5′,4′:4,5]thieno[2,3-e]indazol-6-amine] | – | ≤ 5 µM
20 | CN1CCN(CCn2cc3c(n2)CCc2c-3sc3ncnc(Nc4ccc(OCc5cscn5)c(Cl)c4)c23)CC1 [Example 347, N-[3-chloro-4-(1,3-thiazol-4-ylmethoxy)phenyl]-2-[2-(4-methylpiperazin-1-yl)ethyl]-4,5-dihydro-2H-pyrimido[5′,4′:4,5]thieno[2,3-e]indazol-6-amine bis(trifluoroacetate)] | – | ≤ 50 µM
21 | OC[C@@H](O)Cn1cc2c(n1)CCc1c-2sc2ncnc(Nc3ccc(F)c(Cl)c3)c12 [Example 43, (S)-3-[6-(3-Chloro-4-fluoro-phenylamino)-4,5-dihydro-10-thia-2,3,7,9-tetraaza-cyclopenta[a]fluoren-2-yl}-propane-1,2-diol] | – | ≤ 5 µM
